Measurements published in patent publication US20100144728A1, “Oxazolidinone For The Treatment And Prophylaxis Of Pulmonary Hypertension” (Bayer Schering Pharma AG, priority 2007, published 2010).

Test system: monocrotaline-induced pulmonary hypertension
Assay: Monocrotaline-induced pulmonary hypertension in rats (haemodynamics, right heart hypertrophy, bleeding)
Format: in vivo, rat
Conditions: for bleeding complications in treated animals: bleeding with fatal outcome or need to euthanize; for effect on haemodynamics in the right heart and pulmonary circulation and right heart hypertrophy (in words): comparison of Example 1, enoxaparin and warfarin
Source text: The monocrotaline-induced pulmonary hypertension in rats is a widely used animal model of pulmonary arterial hypertension. The pyrrolizidine alkaloid monocrotaline is metabolized after subcutaneous injection to toxic monocrotaline pyrrole in the liver and leads within a few days to endothelial damage and coagulation activation and thrombosis formation in the pulmonary circulation, followed by remodelling of the small pulmonary arteries (media hypertrophy, de-novo muscularization). A single subcutaneous injection is sufficient to induce pronounced pulmonary hypertension in rats within 4 weeks.
Male Sprague-Dawley rats are used for the model. On day 0, the animals receive a subcutaneous injection of monocrotaline 60 mg/kg. The treatment of the animals starts before the monocrotaline injection and extends over a period of at least 28 days. At the end of the study, the animals undergo haemodynamic investigations, and the arterial and central venous oxygen saturation is measured. The rats are initially anaesthetized with pentobarbital 60 mg/kg for the haemodynamic measurement. The animals are then tracheotomized and artificially ventilated (frequency: 60 breaths/min; inspiration to expiration ratio: 50:50; positive end-expiratory pressure: 1 cm H2O; tidal volume: 10 ml/kg body weight; FIO2: 0.5). The anaesthesia is maintained by isoflurane inhalation anaesthesia. The systemic blood pressure is measured in the left carotid artery by means of a Millar microtip catheter. A polyethylene catheter is advanced through the right jugular vein into the right ventricle for determining the right ventricular pressure. The cardiac output is measured by thermodilution. Following the haemodynamics, the heart is removed and the ratio of right to left ventricle including septum is determined.

Compound: CC(=O)CC(c1ccccc1)c1c(O)c2ccccc2oc1=O (stereo not shown) [Warfarin, warfarin, reference compound]
- CO (Table 2, 0.1-0.2 mg/kg/d): 100 mL/min
- RV/(LV + S) (Table 2, 0.1-0.2 mg/kg/d): 0.46
- RVEDP (Table 2, 0.1-0.2 mg/kg/d): 4 mmHg
- RVPmax (Table 2, 0.1-0.2 mg/kg/d): 64 mmHg
- dP/dtmax (Table 2, 0.1-0.2 mg/kg/d): 4535 mmHg/s
- bleeding complications in treated animals: half of the animals
- effect on haemodynamics in the right heart and pulmonary circulation and right heart hypertrophy (in words): significantly smaller effect

Compound: enoxaparin [reference compound]
- CO (Table 2, 20 mg/kg/d): 77 mL/min
- RV/(LV + S) (Table 2, 20 mg/kg/d): 0.56
- RVEDP (Table 2, 20 mg/kg/d): 6 mmHg
- RVPmax (Table 2, 20 mg/kg/d): 85 mmHg
- dP/dtmax (Table 2, 20 mg/kg/d): 4644 mmHg/s
- bleeding complications in treated animals: half of the animals
- effect on haemodynamics in the right heart and pulmonary circulation and right heart hypertrophy (in words): no effect

Compound: O=C(NC[C@H]1CN(c2ccc(N3CCOCC3=O)cc2)C(=O)O1)c1ccc(Cl)s1 [Example 1, 5-chloro-N-({(5S)-2-oxo-3-[4-(3-oxomorpholin-4-yl)phenyl]-1,3-oxazolidin-5-yl}methyl)thiophene-2-carboxamide]
- RVEDP (Table 1, 3-9 mg/kg/d): 4 mmHg
- dP/dtmax (Table 1, 3-9 mg/kg/d): 2715 mmHg/s
- RVPmax (Table 1, 3-9 mg/kg/d, at least 28 days treatment): 55 mmHg
- CO (Table 1, 3-9 mg/kg/d, cardiac output): 117 mL/min
- RV/(LV + S) (Table 1, 3-9 mg/kg/d, weight of right heart relative to left heart including septum): 0.41
- CO (Table 1, 10-30 mg/kg/d): 117 mL/min
- RV/(LV + S) (Table 1, 10-30 mg/kg/d): 0.33
- RVEDP (Table 1, 10-30 mg/kg/d): 3 mmHg
- RVPmax (Table 1, 10-30 mg/kg/d): 44 mmHg
- dP/dtmax (Table 1, 10-30 mg/kg/d): 2244 mmHg/s
- CO (Table 2, 10-30 mg/kg/d): 125 mL/min
- RV/(LV + S) (Table 2, 10-30 mg/kg/d): 0.38
- RVEDP (Table 2, 10-30 mg/kg/d): 3 mmHg
- RVPmax (Table 2, 10-30 mg/kg/d): 57 mmHg
- dP/dtmax (Table 2, 10-30 mg/kg/d): 3300 mmHg/s
- bleeding complications in treated animals: no bleedings
- effect on haemodynamics in the right heart and pulmonary circulation and right heart hypertrophy (in words): better activity
